{"source": "patent US20260125357A1", "about": "“LACTATE ENHANCING COMPOUNDS AND USES THEREOF” (GLIAPHARM SA, priority 2022, published 2026)", "system": "mice injected with streptozotocin", "assay": "Novel Object Recognition in streptozotocin ICV injection model of Alzheimer's disease", "assay_type": "in vivo, mouse", "conditions": "1 day after training, vs Veh", "procedure": "Craniotomies are performed on isoflurane-anesthetized mice for injections of Veh or streptozotocin in cerebral ventricles (coordinates: −0.5 mm (to bregma), lateral+/−1.0 mm (to midline), ventral −2.2 mm (to dura)) (Kelliny S. et al., Molecular Neurobiology, 2021). A solution composed of Veh (0.9% NaCl) or streptozotocin (5 mg/kg) prepared in 1 μl artificial cerebrospinal fluid solution (aCSF, 20 mM citrate buffer, pH 4.2) is injected in both cerebral ventricles using Hamilton micro syringe at a constant speed of 100-200 nl/min. After injection, skin of the skull is sutured, and mice is monitored closely and receives analgesic treatment for at least 4 days. After mice had fully recovered from surgery, memory tests including Morris Water Maze (MWM), Inhibitory Avoidance (IA) and Novel Object Recognition (NOR), as described below, are performed. […]\nNovel object recognition (NOR) is a well-established protocol to evaluate recognition memory in rodent models. […] During the acquisition period, time spent exploring and number of contacts with each object are recorded. […] The time of exploration and number of contacts with each object are recorded. The activity is recorded automatically using automated tracking software (Ethovision)."}
{"smiles": "COc1cc2ccnc(Nc3ccc(S(C)(=O)=O)cc3)c2cc1OC", "note": "[Compound 2, 6,7-dimethoxy-N-(4-methylsulfonylphenyl)isoquinolin-1-amine]", "values": [{"measurement": "memory in the Novel object recognition", "setting": "10 mg/kg", "result": "significantly higher"}, {"measurement": "memory in the Novel object recognition", "setting": "30 mg/kg", "result": "significantly higher"}]}
